The assay has as its target T1, hROMK (hKir1.1) (Homo sapiens, UniProt P48048).
T1 construct: expressed in transfected cells
T1 sequence (P48048 1-391): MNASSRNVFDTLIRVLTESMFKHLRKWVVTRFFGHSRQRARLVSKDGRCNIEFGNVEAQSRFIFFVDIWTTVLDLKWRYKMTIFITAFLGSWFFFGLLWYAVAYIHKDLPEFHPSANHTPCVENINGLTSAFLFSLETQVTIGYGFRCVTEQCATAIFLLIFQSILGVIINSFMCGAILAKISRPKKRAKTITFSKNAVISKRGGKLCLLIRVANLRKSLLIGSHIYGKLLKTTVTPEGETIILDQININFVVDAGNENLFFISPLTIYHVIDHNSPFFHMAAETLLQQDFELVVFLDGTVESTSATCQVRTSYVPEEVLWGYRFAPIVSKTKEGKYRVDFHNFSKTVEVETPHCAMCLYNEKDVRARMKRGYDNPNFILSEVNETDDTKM
Description: Thallium Flux Assay. Format: cell-based. The conditions noted are these: HEK293 cells stably expressing hROMK (hKir1.1). The protocol: Cell Culture Conditions—HEK293 cells stably expressing hROMK (hKir1.1) were grown at 37° C. in a 10% CO2 humidified incubator in complete growth media: Dulbecco's Modified Eagle Medium supplemented with non-essential amino acids, Penicillin/Streptomycin/Glutamine, G418 and FBS. At >80% confluency, aspirate the media from the flask and rinse with 10 mL Calcium/Magnesium-free PBS. Add 5 mL of 1× trypsin (prepared in Ca/Mg Free PBS) to T-225 flask and return flask to 37° C./CO2 incubator for 2-3 minutes. To dislodge the cell, gently bang the side of the flask with your hand. Triturate the cells completely and then transfer the cells to 25 mL complete media. Centrifuge at 1,500 rpm for 6 min followed by resuspension in complete growth media and determine cell concentration. For typical re-seeding, 4E6 cells/T-225 flask will attain >80% confluency in 4 days. Under ideal growth conditions and appropriate tissue culture practices, this cell line is stable for 40-45 passages.
FluxOR Kit Components (Invitrogen F10017)
• FluxOR™ Reagent (Component A) • FluxOR™ Assay Buffer (Component B)—10× Concentrate • PowerLoad™ Concentrate (Component C)—100× Concentrate • Probenecid (Component D)—Lyophilized sample is kept at −20° C. Water soluble, 100× after solubilization in 1 mL water. Store at 4° C. • FluxOR™ Chloride-free Buffer (Component E)—5× Concentrate • Potassium sulfate (K2SO4) Concentrate (Component F)—125 mM in water. Store at 4° C. • Thallium sulfate (Tl2SO4) Concentrate (Component G)—50 mM in water. Store at 4° C. • DMSO (dimethyl sulfoxide, Component H)—1 mL (100%) Reagent Preparation: FluxOR Working Solutions • 1000× FluxOR™ Reagent: Reconstitute a vial of component A in 100 μl DMSO; Mix well; Store 10 μl aliquots at −20° C. • 1× FluxOR™ Assay Buffer: Dilute Component B 10-fold with water; Adjust pH to 7.4 with Hepes/NaOH; Filter and store at 4° C. • Probenecid/Assay Buffer: 100 mL of 1× FluxOR™ Assay Buffer; 1 mL of reconstituted component D; Store at 4° C. • Loading Buffer (per microplate): 10 μl 1000× FluxOR™ Reagent; 100 μl component C; 10 mL Probenecid/Assay Buffer • Compound Buffer (per microplate): 20 mL Probenecid/Assay Buffer; 0.3 mM ouabain (10 mM ouabain in water can be stored in amber bottle/aluminum foil at room temperature); Test compound • 1× FluxOR™ Chloride-Free Buffer: Prepare 1× working solution in water. Can be stored at room temperature • Stimulant Buffer (prepared at 5× final concentration in 1× FluxOR™Chloride-Free Buffer): 7.5 mM Thallium sulfate and 0.75 mM Potassium sulfate (to give a final assay concentration of 3 mM Thallium/0.3 mM Potassium). Store at 4° C. when not in use. If kept sterile, this solution is good for months.
Assay Protocol—The ROMK channel functional thallium flux assay is performed in 384 wells, using the FLIPR-Tetra instrument. HEK-hKir1.1 cells are seeded in Poly-D-Lysine microplates and kept in a 37° C.-10% CO2 incubator overnight. On the day of the experiment, the growth media is replaced with the FluxOR™ reagent loading buffer and incubated, protected from light, at ambient temperature (23-25° C.) for 90 min. The loading buffer is replaced with assay buffer± test compound followed by 30 min incubation at ambient temperature, where the Thallium/Potassium stimulant is added to the microplate.
• 1. Seed HEK-hKir1.1 cells (50 μl at 20,000 cells/well) in 384-well PDL coated Microplates • 2. Allow cells to adhere overnight in humidified 37° C./10% CO2 incubator • 3. Completely remove cell growth media from microplate and replace with 25 μl loading buffer • 4. Incubate Microplate at room temperature, protected form light, for 90 min • 5. Remove loading buffer and replace with 25 μl 1× Assay Buffer±test compound. • 6. Incubate microplate at room temperature, protected from light, for 30 min • 7. At FLIPR-Tetra 384: Add stimulant (Thallium/Potassium) solution to microplate and monitor fluorescence. Excitation=400 nm, Emission=460 & 580 nm. Collect data for ˜10 min. […]

IC50 data for 29 compounds are collected here from patent US9777002B2, “Inhibitors of the renal outer medullary potassium channel” (Merck Sharp & Dohme Corp., priority 2012, dated 2017).

What is called IC50 is the concentration that gives 50% inhibition. Low values mean greater potency in that assay, high ones weaker potency in that assay. As to `Cc1c([C@@H](O)CN2CC[C@H](NC(=O)c3ccc(C#N)cn3)[C@H](F)C2)ccc2c1COC2=O` (single isomer, unassigned) [43 B], the midpoint of inhibition, the IC50, lay at 180 nM.

For `Cc1nc(C(=O)N[C@H]2CCN(C[C@H](O)c3ccc4c(c3C)COC4=O)C[C@H]2F)ccc1C#N` (single isomer, unassigned) [44 A], the IC50 came to 570 nM.

With `Cc1nc(C(=O)N[C@H]2CCN(C[C@H](O)c3ccc4c(c3C)COC4=O)C[C@H]2F)ccc1C#N` (single isomer, unassigned) [44 B], the IC50 was determined as 260 nM.

Compound `Cc1c([C@@H](O)CN2CCC(NC(=O)c3ccc(C#N)nc3)C(F)C2)ccc2c1COC2=O` (single isomer, unassigned) [46 A] yielded an IC50 of 520 nM.

Take `Cc1c([C@@H](O)CN2CCC(NC(=O)c3ccc(C#N)nc3)C(F)C2)ccc2c1COC2=O` (single isomer, unassigned) [46 B]: the IC50 was 650 nM.

With `Cc1cc(C(=O)N[C@H]2CCN(C[C@H](O)c3ccc4c(c3C)COC4=O)C[C@H]2F)ccc1C#N` (single isomer, unassigned) [47 A], inhibition was half-maximal at 160 nM (IC50).

Compound `Cc1cc(C(=O)N[C@H]2CCN(C[C@H](O)c3ccc4c(c3C)COC4=O)C[C@H]2F)ccc1C#N` (single isomer, unassigned) [47 B] came in with an IC50 of 180 nM.

`Cc1cc(C(=O)NC2CCN(C[C@H](O)c3ccc4c(c3C)COC4=O)CC2F)ncc1C#N` (single isomer, unassigned) [48 A] registered an IC50 of 80 nM.

`Cc1cc(C(=O)NC2CCN(C[C@H](O)c3ccc4c(c3C)COC4=O)CC2F)ncc1C#N` (single isomer, unassigned) [48 B] had a concentration for half-maximal inhibition (IC50) of 100 nM.

The compound `Cc1c([C@@H](O)CN2CC[C@H](NC(=O)c3ccc(-n4cnnn4)nc3)[C@H](F)C2)ccc2c1COC2=O` (single isomer, unassigned) [50 A] had an IC50 of 100 nM.

For the compound `Cc1c([C@@H](O)CN2CC[C@H](NC(=O)c3ccc(-n4cnnn4)nc3)[C@H](F)C2)ccc2c1COC2=O` (single isomer, unassigned) [50 B], the IC50 stood at 930 nM.

For `CO[C@@H]1CN(C[C@H](O)c2ccc3c(c2C)COC3=O)CC[C@@H]1NC(=O)c1ccc(-n2cnnn2)nc1` (single isomer, unassigned) [54 A], half-maximal inhibition (IC50) required 760 nM.

`CO[C@@H]1CN(C[C@H](O)c2ccc3c(c2C)COC3=O)CC[C@@H]1NC(=O)c1ccc(-n2cnnn2)nc1` (single isomer, unassigned) [54 B] displayed an IC50 of 340 nM.

The compound `Cc1c([C@@H](O)CN2CC[C@H](NC(=O)c3ccc(-n4cnnn4)cn3)[C@H](F)C2)ccc2c1COC2=O` (single isomer, unassigned) [58 A] displayed an IC50 of 540 nM.

As to `Cc1c([C@@H](O)CN2CC[C@H](NC(=O)c3ccc(-n4cnnn4)cn3)[C@H](F)C2)ccc2c1COC2=O` (single isomer, unassigned) [58 B], the IC50 was found to be 870 nM.

`Cc1c([C@@H](O)CN2CCC(C)(CNC(=O)c3ccc(-n4cnnn4)cn3)C2)ccc2c1COC2=O` (single isomer, unassigned) [69 A]: it took 880 nM to reach half-maximal inhibition (IC50).

Compound `Cc1c([C@@H](O)CN2CCC(C)(CNC(=O)c3ccc(-n4cnnn4)cn3)C2)ccc2c1COC2=O` (single isomer, unassigned) [69 B] displayed an IC50 of 490 nM.

Regarding `Cc1c([C@@H](O)CN2CCC(CNC(=O)c3ccc(-n4cnnn4)nc3)(c3ccccc3)C2)ccc2c1COC2=O` (single isomer, unassigned) [81 A], the IC50 was 620 nM.

`Cc1c([C@@H](O)CN2CCC(CNC(=O)c3ccc(-n4cnnn4)nc3)(c3ccccc3)C2)ccc2c1COC2=O` (single isomer, unassigned) [81 B]: 160 nM corresponded to half-maximal inhibition (IC50).

`Cc1c([C@@H](O)CN2CCC(C3(NC(=O)c4ccc(-n5cnnn5)nc4)CCC3)C2)ccc2c1COC2=O` (single isomer, unassigned) [90 A] came in with an IC50 of 740 nM.

`Cc1c([C@@H](O)CN2CCC(C3(NC(=O)c4ccc(-n5cnnn5)nc4)CCC3)C2)ccc2c1COC2=O` (single isomer, unassigned) [90 B] had an IC50 of 280 nM.

In turn, `Cc1c(CCN2CCC(N(C)C(=O)c3ccc4c(c3)COC4=O)CC2)ccc2c1COC2=O` [Example 2, N-Methyl-N-(1-(2-(4-methyl-1-oxo-1,3-dihydroisobenzofuran-5-yl)ethyl)piperidin-4-yl)-1-oxo-1,3-dihydroisobenzofuran-5-carboxamide] came in with an IC50 of 600 nM.

`Cc1c(CCN2CCC(NC(=O)c3ccc(-n4cnnn4)nc3)CC2)ccc2c1COC2=O` [Example 3, N-(1-(2-(4-Methyl-1-oxo-1,3-dihydroisobenzofuran-5-yl)ethyl)piperidin-4-yl)-6-(1H-tetrazol-1-yl)nicotinamide] returned a half-inhibitory concentration (IC50) of 500 nM.

The compound `C[C@H]1Cc2cc(CCN3CCC(NC(=O)c4ccc5c(c4)COC5=O)CC3)ccc2C(=O)O1` [Example 4, (S)-N-(1-(2-(3-methyl-1-oxoisochroman-6-yl)ethyl)piperidin-4-yl)-1-oxo-1,3-dihydroisobenzofuran-5-carboxamide] had an IC50 of 320 nM.

`COc1cc(C(=O)NC2CCN(CCc3ccc4c(c3C)COC4=O)CC2)ccc1C#N` [Example 5, 4-Cyano-3-methoxy-N-(1-(2-(4-methyl-1-oxo-1,3-dihydroisobenzofuran-5-yl)ethyl)piperidin-4-yl)benzamide] registered an IC50 of 20 nM.

Compound `Cc1c(C(O)CN2CCC(NC(=O)c3ccc4c(c3)COC4=O)CC2)ccc2c1COC2=O` (centres unmarked) [Example 6, N-(1-(2-Hydroxy-2-(4-methyl-1-oxo-1,3-dihydroisobenzofuran-5-yl)ethyl)piperidin-4-yl)-1-oxo-1,3-dihydroisobenzofuran-5-carboxamide] returned an IC50 of 40 nM.

`COc1cc(C(=O)NC2CCN(CC(O)c3ccc4c(c3C)COC4=O)CC2)ccc1C#N` (centres unmarked) [Example 7, 4-Cyano-N-(1-(2-hydroxy-2-(4-methyl-1-oxo-1,3-dihydroisobenzofuran-5-yl)ethyl)piperidin-4-yl)-3-methoxybenzamide] registered an IC50 of 10 nM.

`Cc1c(CCN2CCC(NC(=O)c3ccc4nonc4c3)CC2)ccc2c1COC2=O` [Example 8, N-(1-(2-(4-Methyl-1-oxo-1,3-dihydroisobenzofuran-5-yl)ethyl)piperidin-4-yl)benzo[c][1,2,5]oxadiazole-5-carboxamide] came in with a concentration for half-maximal inhibition (IC50) of 460 nM.

For `COc1ccc(C(=O)NC2CCN(CCc3ccc4c(c3C)COC4=O)CC2)cc1C#N` [Example 9, 3-Cyano-4-methoxy-N-(1-(2-(4-methyl-1-oxo-1,3-dihydroisobenzofuran-5-yl)ethyl)piperidin-4-yl)benzamide], inhibition was half-maximal at 30 nM (IC50).
